Measurements reported in the supplement of paper PMC10132981, “Formate overflow drives toxic folate trapping in MTHFD1 inhibited cancer cells” (Nature Metabolism, 2023).
± gives the standard deviation of the averaged measurements.

Legend:
SW620 MTHFD2-/- = assay: EC50 for viability (resazurin, 96 h); settings: RPMI+GlutaMAX (5% dFBS, 1% P/S); metabolite supplement: Hypoxanthine + Formate
SW620 WT = assay: EC50 for viability (resazurin, 96 h); settings: RPMI+GlutaMAX (5% dFBS, 1% P/S)
SW620 MTHFD2 -/- = assay: EC50 for viability (resazurin, 96 h); settings: RPMI+GlutaMAX (5% dFBS, 1% P/S)
SW620 [1] = assay: EC50 for viability (resazurin, 96 h)
SW620 [2] = assay: cell viability relative to lowest-dose well (resazurin, 96 h); higher = more viable; settings: RPMI + 10% FBS
Summary of the method: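 HCT116 (500 cells/well) or SW620 (1,000 cells/well) cells were seeded in 50 µl RPMI with 10% FBS plus a metabolite supplement in 384-well plates. Compounds were dispensed from 10 mM DMSO stocks as dilution series, and plates were incubated 96 h at 37 °C, 5% CO2. Viability was read as resazurin (10 µg ml^−1) conversion to resorufin after 5 h, by fluorescence at 595 nm. Values are percent of the lowest-dose well, with independent replicate cultures. Viability was read by resazurin-to-resorufin conversion and normalised to the lowest-dose vehicle well (=100%).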

Cc1c(N2CCN(C)[C@@H](C)C2)ccc2c3c(c(=O)oc12)CN(C(=O)c1ccc(NS(C)(=O)=O)c(OC(F)(F)F)c1)CC3
Settings | EC50 for viability [nM]
SW620 MTHFD2-/- | > 10000

EC50 for viability [nM]
Settings | metabolite supplement: Adenine | metabolite supplement: Adenosine | metabolite supplement: Guanosine | metabolite supplement: Hypoxanthine | metabolite supplement: Sodium Formate | metabolite supplement: Thymidine | metabolite supplement: Thymidine + Sodium Formate | metabolite supplement: Vehicle
SW620 MTHFD2 -/- | – | – | – | – | > 10000 | 86.3 ± 2.7 | 0.383 | 178 ± 350
SW620 WT | > 10000 | > 10000 | 2970 | > 10000 | – | 1070 | – | 889 ± 110

Settings | EC50 for viability [nM] | cell viability [%]
SW620 [1], HPLM (5% dFBS, 1% P/S), metabolite supplement: Vehicle | > 10000 | –
SW620 [1], RPMI+GlutaMAX (5% FBS, 1% P/S), metabolite supplement: Vehicle | > 10000 | –
SW620 [1], RPMI+GlutaMAX (5% dFBS, 1% P/S), metabolite supplement: 50 µM Hypoxanthine | > 10000 | –
SW620 [1], RPMI+GlutaMAX (5% dFBS, 1% P/S), metabolite supplement: Vehicle | 553 ± 450 | –
SW620 [1], RPMI+GlutaMAX (10% FBS, 1% P/S), metabolite supplement: Hypoxanthine | 7050 | –
SW620 [1], RPMI+GlutaMAX (10% FBS, 1% P/S), metabolite supplement: Sodium Formate | 6170 | –
SW620 [1], RPMI+GlutaMAX (10% FBS, 1% P/S), metabolite supplement: Thymidine | 447 | –
SW620 [1], RPMI+GlutaMAX (10% FBS, 1% P/S), metabolite supplement: Thymidine + Hypoxanthine | > 10000 | –
SW620 [1], RPMI+GlutaMAX (10% FBS, 1% P/S), metabolite supplement: Thymidine + Sodium Formate | > 10000 | –
SW620 [2], 0.001 µM, metabolite supplement: 1mM sodium formate | – | 100 ± 2.4
SW620 [2], 0.001 µM, metabolite supplement: 50uM thymidine | – | 99.1 ± 2.6
SW620 [2], 0.001 µM, metabolite supplement: 50uM thymidine + 1mM sodium formate | – | 99.4 ± 5
SW620 [2], 0.001 µM, metabolite supplement: 50uM thymidine + 250uM hypoxanthine | – | 100 ± 1.9
SW620 [2], 0.001 µM, metabolite supplement: 250uM hypoxanthine | – | 100 ± 3.8
SW620 [2], 0.001 µM, metabolite supplement: vehicle | – | 97 ± 2.5
SW620 [2], 0.00301 µM, metabolite supplement: 1mM sodium formate | – | 98.27 ± 0.76
SW620 [2], 0.00301 µM, metabolite supplement: 50uM thymidine | – | 97.2 ± 3.5
SW620 [2], 0.00301 µM, metabolite supplement: 50uM thymidine + 1mM sodium formate | – | 102 ± 4.1
SW620 [2], 0.00301 µM, metabolite supplement: 50uM thymidine + 250uM hypoxanthine | – | 102.3 ± 0.31
SW620 [2], 0.00301 µM, metabolite supplement: 250uM hypoxanthine | – | 96.6 ± 5.2
SW620 [2], 0.00301 µM, metabolite supplement: vehicle | – | 97.3 ± 2.9
SW620 [2], 0.00903 µM, metabolite supplement: 1mM sodium formate | – | 97.8 ± 2.1
SW620 [2], 0.00903 µM, metabolite supplement: 50uM thymidine | – | 96 ± 5.5
SW620 [2], 0.00903 µM, metabolite supplement: 50uM thymidine + 1mM sodium formate | – | 101 ± 2.7
SW620 [2], 0.00903 µM, metabolite supplement: 50uM thymidine + 250uM hypoxanthine | – | 102 ± 1.4
SW620 [2], 0.00903 µM, metabolite supplement: 250uM hypoxanthine | – | 98.9 ± 4.9
SW620 [2], 0.00903 µM, metabolite supplement: vehicle | – | 96.4 ± 4.2
SW620 [2], 0.0271 µM, metabolite supplement: 1mM sodium formate | – | 100 ± 2
SW620 [2], 0.0271 µM, metabolite supplement: 50uM thymidine | – | 99.6 ± 3.1
SW620 [2], 0.0271 µM, metabolite supplement: 50uM thymidine + 1mM sodium formate | – | 102 ± 3
SW620 [2], 0.0271 µM, metabolite supplement: 50uM thymidine + 250uM hypoxanthine | – | 104 ± 1.5
SW620 [2], 0.0271 µM, metabolite supplement: 250uM hypoxanthine | – | 99.5 ± 4
SW620 [2], 0.0271 µM, metabolite supplement: vehicle | – | 97.6 ± 1.1
SW620 [2], 0.0816 µM, metabolite supplement: 1mM sodium formate | – | 101 ± 0.87
SW620 [2], 0.0816 µM, metabolite supplement: 50uM thymidine | – | 97.1 ± 4.2
SW620 [2], 0.0816 µM, metabolite supplement: 50uM thymidine + 1mM sodium formate | – | 105 ± 3.8
SW620 [2], 0.0816 µM, metabolite supplement: 50uM thymidine + 250uM hypoxanthine | – | 107 ± 1.5
SW620 [2], 0.0816 µM, metabolite supplement: 250uM hypoxanthine | – | 97.4 ± 3
SW620 [2], 0.0816 µM, metabolite supplement: vehicle | – | 95.4 ± 3.5
SW620 [2], 0.245 µM, metabolite supplement: 1mM sodium formate | – | 97.7 ± 3.2
SW620 [2], 0.245 µM, metabolite supplement: 50uM thymidine | – | 85.4 ± 0.99
SW620 [2], 0.245 µM, metabolite supplement: 50uM thymidine + 1mM sodium formate | – | 104 ± 2.2
SW620 [2], 0.245 µM, metabolite supplement: 50uM thymidine + 250uM hypoxanthine | – | 107.8 ± 0.7
SW620 [2], 0.245 µM, metabolite supplement: 250uM hypoxanthine | – | 99.9 ± 4
SW620 [2], 0.245 µM, metabolite supplement: vehicle | – | 86.4 ± 2.3
SW620 [2], 0.737 µM, metabolite supplement: 1mM sodium formate | – | 95.9 ± 4
SW620 [2], 0.737 µM, metabolite supplement: 50uM thymidine | – | 69.5 ± 2.1
SW620 [2], 0.737 µM, metabolite supplement: 50uM thymidine + 1mM sodium formate | – | 100 ± 1.2
SW620 [2], 0.737 µM, metabolite supplement: 50uM thymidine + 250uM hypoxanthine | – | 108 ± 1.3
SW620 [2], 0.737 µM, metabolite supplement: 250uM hypoxanthine | – | 97 ± 3.2
SW620 [2], 0.737 µM, metabolite supplement: vehicle | – | 71.13 ± 0.45
SW620 [2], 2.21 µM, metabolite supplement: 1mM sodium formate | – | 89 ± 1.1
SW620 [2], 2.21 µM, metabolite supplement: 50uM thymidine | – | 61.5 ± 3.3
SW620 [2], 2.21 µM, metabolite supplement: 50uM thymidine + 1mM sodium formate | – | 102 ± 4.7
SW620 [2], 2.21 µM, metabolite supplement: 50uM thymidine + 250uM hypoxanthine | – | 106 ± 2.1
SW620 [2], 2.21 µM, metabolite supplement: 250uM hypoxanthine | – | 84.7 ± 4.6
SW620 [2], 2.21 µM, metabolite supplement: vehicle | – | 63.2 ± 2.9
SW620 [2], 6.65 µM, metabolite supplement: 1mM sodium formate | – | 62.4 ± 5.1
SW620 [2], 6.65 µM, metabolite supplement: 50uM thymidine | – | 58.1 ± 3.9
SW620 [2], 6.65 µM, metabolite supplement: 50uM thymidine + 1mM sodium formate | – | 101 ± 6.5
SW620 [2], 6.65 µM, metabolite supplement: 50uM thymidine + 250uM hypoxanthine | – | 102 ± 2.5
SW620 [2], 6.65 µM, metabolite supplement: 250uM hypoxanthine | – | 66.4 ± 4.7
SW620 [2], 6.65 µM, metabolite supplement: vehicle | – | 60.8 ± 5.5
SW620 [2], 20 µM, metabolite supplement: 1mM sodium formate | – | 39.2 ± 3.1
SW620 [2], 20 µM, metabolite supplement: 50uM thymidine | – | 54.3 ± 3.2
SW620 [2], 20 µM, metabolite supplement: 50uM thymidine + 1mM sodium formate | – | 89.9 ± 1.1
SW620 [2], 20 µM, metabolite supplement: 50uM thymidine + 250uM hypoxanthine | – | 88.6 ± 7.4
SW620 [2], 20 µM, metabolite supplement: 250uM hypoxanthine | – | 44.2 ± 6
SW620 [2], 20 µM, metabolite supplement: vehicle | – | 55 ± 4.3
